Laboratory results from article PMC12241633, “Irinotecan alleviates chemoresistance to anthracyclines through the inhibition of AARS1-mediated BLM lactylation and homologous recombination repair” (Signal Transduction and Targeted Therapy, 2025).

Key:
Assay in all cases: SPR (Biacore T200), multicycle kinetics, global […] Langmuir fit
Assay type in all cases: binding
BLM [1] = target: T1, BLM (Homo sapiens, UniProt P54132, K38R)
T1 construct: recombinant, pET28a-sumo in E. coli BL21(DE3); amine-coupled to CM5 chip

BLM [2] = target: T2, BLM (Homo sapiens, UniProt P54132)
T2 construct: recombinant, pET28a-sumo in E. coli BL21(DE3); amine-coupled to CM5 chip

BLM [3] = target: T3, BLM (Homo sapiens, UniProt P54132, K31R)
T3 construct: recombinant, pET28a-sumo in E. coli BL21(DE3); amine-coupled to CM5 chip
T3 sequence (P54132 whole entry K31R): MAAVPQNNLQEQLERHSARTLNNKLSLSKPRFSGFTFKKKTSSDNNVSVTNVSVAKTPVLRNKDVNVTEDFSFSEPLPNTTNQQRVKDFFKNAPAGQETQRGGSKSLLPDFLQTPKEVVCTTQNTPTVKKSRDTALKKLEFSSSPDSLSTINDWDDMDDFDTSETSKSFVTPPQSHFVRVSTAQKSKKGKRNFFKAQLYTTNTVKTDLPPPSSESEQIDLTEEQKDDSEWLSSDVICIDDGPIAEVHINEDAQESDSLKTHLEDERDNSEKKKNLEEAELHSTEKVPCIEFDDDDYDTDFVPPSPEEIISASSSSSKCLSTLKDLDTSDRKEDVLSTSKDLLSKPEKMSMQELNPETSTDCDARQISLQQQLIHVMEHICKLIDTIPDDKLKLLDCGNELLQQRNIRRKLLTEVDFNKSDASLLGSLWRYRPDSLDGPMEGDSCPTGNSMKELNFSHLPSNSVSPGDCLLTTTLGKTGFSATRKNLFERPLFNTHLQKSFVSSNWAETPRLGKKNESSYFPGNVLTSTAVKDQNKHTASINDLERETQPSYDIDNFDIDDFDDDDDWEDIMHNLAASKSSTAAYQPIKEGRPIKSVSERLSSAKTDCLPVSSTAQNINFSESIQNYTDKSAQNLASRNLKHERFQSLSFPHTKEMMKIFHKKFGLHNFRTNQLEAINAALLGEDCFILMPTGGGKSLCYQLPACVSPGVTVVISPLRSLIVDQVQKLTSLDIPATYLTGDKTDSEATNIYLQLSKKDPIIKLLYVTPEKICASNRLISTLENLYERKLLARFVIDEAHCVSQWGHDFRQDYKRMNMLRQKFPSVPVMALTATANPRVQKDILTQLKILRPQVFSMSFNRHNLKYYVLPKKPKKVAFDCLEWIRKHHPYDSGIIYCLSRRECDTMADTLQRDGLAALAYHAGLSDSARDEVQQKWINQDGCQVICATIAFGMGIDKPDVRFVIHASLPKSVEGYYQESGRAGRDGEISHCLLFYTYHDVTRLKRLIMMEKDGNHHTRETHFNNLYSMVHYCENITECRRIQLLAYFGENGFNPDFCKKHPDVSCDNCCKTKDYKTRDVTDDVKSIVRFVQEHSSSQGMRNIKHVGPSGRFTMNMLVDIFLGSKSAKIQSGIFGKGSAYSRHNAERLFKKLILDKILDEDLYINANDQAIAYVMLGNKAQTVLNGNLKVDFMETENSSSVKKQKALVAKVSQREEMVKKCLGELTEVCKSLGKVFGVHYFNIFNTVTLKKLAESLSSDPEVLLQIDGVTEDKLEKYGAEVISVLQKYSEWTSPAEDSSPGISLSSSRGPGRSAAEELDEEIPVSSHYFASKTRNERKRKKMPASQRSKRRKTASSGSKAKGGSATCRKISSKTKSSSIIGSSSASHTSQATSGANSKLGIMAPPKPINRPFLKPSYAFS

T1 sequence (P54132 whole entry K38R): as the sequence (P54132 whole entry K31R) above, with R31K, K38R counted along it
T2 sequence (P54132 whole entry): as the sequence (P54132 whole entry K31R) above, with R31K counted along it

CCc1c2c(nc3ccc(OC(=O)N4CCC(N5CCCCC5)CC4)cc13)-c1cc3c(c(=O)n1C2)COC(=O)[C@]3(O)CC [irinotecan]
Kd (BLM [1]): 911 nM
Kd (BLM [2]): 251 nM
Kd (BLM [3]): 776 nM
